Patent US8192962B2, “Processes for detecting toxic substances” (Daikin Industries, Ltd., priority 2001, dated 2012)

Tested on: Genes belonging to other category
Experiment: DNA chip mRNA expression in yeast, genes belonging to other category (Table 9)
Format: cell-based, Saccharomyces cerevisiae S288C
Method: Yeast (Saccharomyces cerevisiae S288C (α SUC2mal mel gap2 CUP1)) were incubated at 25° C. on YPD medium (yeast extract 1%, polypepton 2%, glucose 2%). One of toxic chemical substances was added to the cells at logarithmic growth phase, and the cells were further incubated for two hours. Cells were cultured without any chemical substance in the same condition, and were used as control. Concentrations of the chemical substances were defined to inhibit the growth of the yeast but not lead to death.
After completion of the incubation, the culture was centrifuged to collect the cells. To the cells, sodium acetate buffer (50 mM sodium acetate, 10 mM EDTA, 1% SDS) was added, and the mixture was shaken at 65° C. for five minutes, followed by returning to room temperature, and obtaining the supernatant, of which the procedures were repeated two times. To the supernatant, ½ amount of a solution of phenol/chloroform was added, and the mixture was centrifuged to give a supernatant, which was added with an equal amount of chloroform, and the mixture was centrifuged to give a supernatant. To the supernatant, an equal amount of isopropanol containing 0.3 M sodium acetate was added, and the mixture was allowed to stand at room temperature for 30 minutes, after which the mixture was centrifuged to give a sediment of the whole RNAs. Seventy % ethanol was added to the sediment, and the mixture was again centrifuged to give a sediment, which was then dried and dissolved in water. mRNA was isolated from the whole RNAs as followings. In view of the fact that a poly A chain is attached to the 3′ terminus of mRNA, a polynucleotide having a poly T structure which was immobilized on the surface of latex beads was used to trap the mRNA, and then the mRNA was washed and eluted with spine column (Oligotex-dT30<Super>mRNA Purification Kit, Takara). Reverse transcription of the mRNA was conducted with a reverse transcriptase (Super Script II Reverse Transcriptase; catalogue No. 18064-014, GibcoBRL) using fluorescence-labeled nucleotides to give cDNAs that were introduced with Cy3-dUTP or Cy5-dUTP during the reverse transcription.
The labeled cDNAs were dissolved in TE buffer (10mM Tris-HCl/1 mM EDTA, pH8.0), and the solution was dropped on the DNA chip containing the whole genes of yeast (DNA Chip Research Inc. Japan) so that the cDNAs were hybridized on the DNA chip at 65° C. for over 12 hours. The fluoresces intensity of the DNA chip was read with a scanner, and the ratio relative to the fluorescence intensity resulting from the absence of chemical substance was estimated as the following, which is shown in Tables 1 to 9: […]

SMILES: N#Cc1c(Cl)c(Cl)c(Cl)c(C#N)c1Cl [(9), 2,4,5,6-tetrachloro-1,3-benzenedicarbonitrile]
- The level of expressed mRNA in the presence of chemical substance/The level of expressed mRNA in the absence of chemical substance (yeast gene YER009W): 0.7
- The level of expressed mRNA in the presence of chemical substance/The level of expressed mRNA in the absence of chemical substance (yeast gene YER012W): 6.7
- The level of expressed mRNA in the presence of chemical substance/The level of expressed mRNA in the absence of chemical substance (yeast gene YER029C): 1.4
- The level of expressed mRNA in the presence of chemical substance/The level of expressed mRNA in the absence of chemical substance (yeast gene YER039C): 1.2
- The level of expressed mRNA in the presence of chemical substance/The level of expressed mRNA in the absence of chemical substance (yeast gene YER094C): 2.3
- The level of expressed mRNA in the presence of chemical substance/The level of expressed mRNA in the absence of chemical substance (yeast gene YER098W): 2.8
- The level of expressed mRNA in the presence of chemical substance/The level of expressed mRNA in the absence of chemical substance (yeast gene YER107C): 0.4
- The level of expressed mRNA in the presence of chemical substance/The level of expressed mRNA in the absence of chemical substance (yeast gene YER130C): 0.5
- The level of expressed mRNA in the presence of chemical substance/The level of expressed mRNA in the absence of chemical substance (yeast gene YER136W): 1.4
- The level of expressed mRNA in the presence of chemical substance/The level of expressed mRNA in the absence of chemical substance (yeast gene YER177W): 1.8
- The level of expressed mRNA in the presence of chemical substance/The level of expressed mRNA in the absence of chemical substance (yeast gene YER184C): 4.6
- The level of expressed mRNA in the presence of chemical substance/The level of expressed mRNA in the absence of chemical substance (yeast gene YFL022C): 0.5
- The level of expressed mRNA in the presence of chemical substance/The level of expressed mRNA in the absence of chemical substance (yeast gene YFL028C): 2.7
- The level of expressed mRNA in the presence of chemical substance/The level of expressed mRNA in the absence of chemical substance (yeast gene YFL038C): 2.1
- The level of expressed mRNA in the presence of chemical substance/The level of expressed mRNA in the absence of chemical substance (yeast gene YFL043C): 2.2
- The level of expressed mRNA in the presence of chemical substance/The level of expressed mRNA in the absence of chemical substance (yeast gene YFR050C): 3.1
- The level of expressed mRNA in the presence of chemical substance/The level of expressed mRNA in the absence of chemical substance (yeast gene YGL011C): 2.0
- The level of expressed mRNA in the presence of chemical substance/The level of expressed mRNA in the absence of chemical substance (yeast gene YGL048C): 2.4
- The level of expressed mRNA in the presence of chemical substance/The level of expressed mRNA in the absence of chemical substance (yeast gene YGL158W): −0.4
- The level of expressed mRNA in the presence of chemical substance/The level of expressed mRNA in the absence of chemical substance (yeast gene YGL208W): 1.4
- The level of expressed mRNA in the presence of chemical substance/The level of expressed mRNA in the absence of chemical substance (yeast gene YGL229C): 1.8
- The level of expressed mRNA in the presence of chemical substance/The level of expressed mRNA in the absence of chemical substance (yeast gene YGR120C): 0.3
- The level of expressed mRNA in the presence of chemical substance/The level of expressed mRNA in the absence of chemical substance (yeast gene YGR131W): 1.9
- The level of expressed mRNA in the presence of chemical substance/The level of expressed mRNA in the absence of chemical substance (yeast gene YGR136W): 2.1
- The level of expressed mRNA in the presence of chemical substance/The level of expressed mRNA in the absence of chemical substance (yeast gene YGR189C): 0.3
- The level of expressed mRNA in the presence of chemical substance/The level of expressed mRNA in the absence of chemical substance (yeast gene YGR213C): 7.5
- The level of expressed mRNA in the presence of chemical substance/The level of expressed mRNA in the absence of chemical substance (yeast gene YGR257C): 1.5
- The level of expressed mRNA in the presence of chemical substance/The level of expressed mRNA in the absence of chemical substance (yeast gene YHL024W): 2.1
- The level of expressed mRNA in the presence of chemical substance/The level of expressed mRNA in the absence of chemical substance (yeast gene YHR004C): 1.1
- The level of expressed mRNA in the presence of chemical substance/The level of expressed mRNA in the absence of chemical substance (yeast gene YHR012W): 4.9
- The level of expressed mRNA in the presence of chemical substance/The level of expressed mRNA in the absence of chemical substance (yeast gene YHR071W): 1.0
- The level of expressed mRNA in the presence of chemical substance/The level of expressed mRNA in the absence of chemical substance (yeast gene YHR109W): 2.4
- The level of expressed mRNA in the presence of chemical substance/The level of expressed mRNA in the absence of chemical substance (yeast gene YHR124W): 3.0
- The level of expressed mRNA in the presence of chemical substance/The level of expressed mRNA in the absence of chemical substance (yeast gene YHR139C): 107.2
- The level of expressed mRNA in the presence of chemical substance/The level of expressed mRNA in the absence of chemical substance (yeast gene YHR142W): 0.4
- The level of expressed mRNA in the presence of chemical substance/The level of expressed mRNA in the absence of chemical substance (yeast gene YHR160C): 2.3
- The level of expressed mRNA in the presence of chemical substance/The level of expressed mRNA in the absence of chemical substance (yeast gene YHR163W): 1.4
- The level of expressed mRNA in the presence of chemical substance/The level of expressed mRNA in the absence of chemical substance (yeast gene YHR171W): 2.1
- The level of expressed mRNA in the presence of chemical substance/The level of expressed mRNA in the absence of chemical substance (yeast gene YIL123W): 0.1
- The level of expressed mRNA in the presence of chemical substance/The level of expressed mRNA in the absence of chemical substance (yeast gene YIL140W): 0.7
- The level of expressed mRNA in the presence of chemical substance/The level of expressed mRNA in the absence of chemical substance (yeast gene YIR018W): 4.0
- The level of expressed mRNA in the presence of chemical substance/The level of expressed mRNA in the absence of chemical substance (yeast gene YJL073W): 1.7
- The level of expressed mRNA in the presence of chemical substance/The level of expressed mRNA in the absence of chemical substance (yeast gene YJL089W): 1.6
- The level of expressed mRNA in the presence of chemical substance/The level of expressed mRNA in the absence of chemical substance (yeast gene YJL113W): 1.3
- The level of expressed mRNA in the presence of chemical substance/The level of expressed mRNA in the absence of chemical substance (yeast gene YJL116C): 2.4
- The level of expressed mRNA in the presence of chemical substance/The level of expressed mRNA in the absence of chemical substance (yeast gene YJL146W): 1.0
- The level of expressed mRNA in the presence of chemical substance/The level of expressed mRNA in the absence of chemical substance (yeast gene YJR004C): 0.3
- The level of expressed mRNA in the presence of chemical substance/The level of expressed mRNA in the absence of chemical substance (yeast gene YJR036C): 1.4
- The level of expressed mRNA in the presence of chemical substance/The level of expressed mRNA in the absence of chemical substance (yeast gene YJR058C): 1.9
- The level of expressed mRNA in the presence of chemical substance/The level of expressed mRNA in the absence of chemical substance (yeast gene YJR086W): 1.4
